IC50 data for seven compounds are collected here from patent US20060079453A1, “Hla binding peptides and their uses” (priority 2002, published 2006).

Some targets named below: HLA-DR DRB1*0301 (DR3) (Homo sapiens, UniProt P01903+P01911, A100K/A102G/A103R/A169T/F55Y/I96L/K41T/L162R/M171V/P40S/Q125H/Q178H/Q39Y/R42S/S66N/T106N/T262R/W38E/Y61H); HLA-DR DRB1*0802 (DR8) (Homo sapiens, UniProt P01903+P01911, A100R/A103L/A169T/F76Y/H45Y/I96F/K41T/L162R/M171V/P40S/Q125H/Q178H/Q39Y/Q99D/R218S/R42G/S66Y/V115G/W38E); HLA-DR DRB3*0101 (DR52) (Homo sapiens, UniProt P01903+P79483).

Holding throughout (experiment): biochemical
Type in all cases: binding

The target in the next experiment is HLA-DR DRB4*0101 (DR53) (Homo sapiens, UniProt P01903+P13762, G164S). The following applies: DRB4 *0101.
The target in another experiment is HLA-DR DRB1*1302 (DR13) (Homo sapiens, UniProt P01903+P01911, A100E/A169T/K41T/L162R/M171V/P40S/Q125H/Q178H/Q39Y/Q99D/R42S/S66N/T262R/V115G/W38E/Y61H). Conditions: DRBI *1302.
Sequence of HLA-DR DRB1*1302 (DR13) (P01903 26-254 limits assumed, other chains not shown): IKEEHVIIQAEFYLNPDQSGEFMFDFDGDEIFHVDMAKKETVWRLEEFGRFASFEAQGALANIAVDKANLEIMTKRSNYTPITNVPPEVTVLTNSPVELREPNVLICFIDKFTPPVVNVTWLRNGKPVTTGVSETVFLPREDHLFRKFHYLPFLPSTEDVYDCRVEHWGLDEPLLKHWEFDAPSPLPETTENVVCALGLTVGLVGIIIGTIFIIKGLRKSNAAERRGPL
Another experiment addresses HLA-DR DRB1*0901 (DR9) (Homo sapiens, UniProt P01903+P01911, A100R/A103E/D57H/D86V/F55Y/F60I/F76Y/I96F/K127E/L162R/M171V/P40D/Q125H/Q99R/R33Q/R42F/S133A/S66N/T210M/V115G/W38K/Y107V/Y59G/Y89S). Conditions: DRB1 *0901.
The target in a further experiment is HLA-DR DRB1*0101 (DR1) (Homo sapiens, UniProt P01903+P01911, A100R/D57E/F55L/F60I/F76Y/I96L/L162R/M171V/P40L/Q125E/R42F/V115G/Y59C). Conditions: DRB1 *0101.
A further experiment concerns the target HLA-DR DRB5*0101 (DR51) (Homo sapiens, UniProt P01903+Q30154). Conditions: DRB5 *0101.
The target of the next experiment is HLA-DR DRB1*0701 (DR7) (Homo sapiens, UniProt P01903+P01911, A100R/A102G/A103Q/D57E/D86V/E43K/F76Y/K127E/L162R/M171V/P40G/Q125H/Q99D/R33Q/R42Y/R54Q/S133A/S66F/T210M/V115G/Y107V/Y59L/Y89S). Conditions: DRB1 *0701.
The next experiment addresses HLA-DR DRB1*1101 (DR11) (Homo sapiens, UniProt P01903+P01911, A100R/A169T/A87E/I96F/K41T/L162R/M171V/P40S/Q125H/Q178H/Q39Y/Q99D/R42S/S66Y/T262R/V115G/W38E). Conditions: DRB1 *1101.
The next experiment concerns the target HLA-DR DRB1*1501 (DR15) (Homo sapiens, UniProt P01903+P01911). Conditions: DRBI *1501.
A further experiment has as its target HLA-DR DRB1*0401 (DR4) (Homo sapiens, UniProt P01903+P01911, A100K/A169T/F76Y/I96L/K127E/L162R/M171V/N62H/P40V/Q125Y/R42H/S133A/S149N/S66Y/V115G/V209L/W38E). Conditions: DRB1 *0401.

No end group written: not given here. Bounds are passed on as bounds.

Sequence of HLA-DR DRB1*1101 (DR11) (P01903 26-254 limits assumed, other chains not shown): as above
Sequence of HLA-DR DRB1*0301 (DR3) (P01903 26-254 limits assumed, other chains not shown): as above

On to NSRLLQERGVAYINA, for which the IC50 against HLA-DR DRB4*0101 (DR53) is 699 nM; on HLA-DR DRB1*1302 (DR13) it was 327 nM; on HLA-DR DRB1*0301 (DR3), 318 nM; against HLA-DR DRB1*0901 (DR9), 2620 nM; at HLA-DR DRB1*0101 (DR1) it was 614 nM; against HLA-DR DRB5*0101 (DR51), 3470 nM. For the same compound, the IC50 against HLA-DR DRB1*0802 (DR8) worked out at 3220 nM; against HLA-DR DRB1*0701 (DR7), 8000 nM; against HLA-DR DRB1*1101 (DR11) it was 12800 nM; against HLA-DR DRB3*0101 (DR52), 3370 nM; against HLA-DR DRB1*1501 (DR15), 1230 nM.

YDPLYCESVHNFTLP: the IC50 was 6900 nM against HLA-DR DRB4*0101 (DR53); more than 35000 nM on HLA-DR DRB1*1302 (DR13); 16600 nM on HLA-DR DRB1*0301 (DR3); 643 nM at HLA-DR DRB1*0901 (DR9); 1600 nM against HLA-DR DRB1*0101 (DR1); 28800 nM at HLA-DR DRB5*0101 (DR51). Moreover, the IC50 is 30900 nM on HLA-DR DRB1*0802 (DR8); 838 nM on HLA-DR DRB1*0701 (DR7); 30200 nM against HLA-DR DRB1*1101 (DR11); more than 8830 nM at HLA-DR DRB3*0101 (DR52); 2140 nM against HLA-DR DRB1*1501 (DR15).

Regarding NGVLQGITSWGSEPC, the IC50 against HLA-DR DRB4*0101 (DR53) was found to be 4490 nM; against HLA-DR DRB1*1302 (DR13) it was 775 nM; against HLA-DR DRB1*0301 (DR3), 24900 nM; against HLA-DR DRB1*0901 (DR9), 819 nM; on HLA-DR DRB1*0101 (DR1), 945 nM; on HLA-DR DRB1*0802 (DR8), 5870 nM. Further, the IC50 against HLA-DR DRB1*0701 (DR7) amounted to 485 nM; at HLA-DR DRB1*0401 (DR4), 560 nM; at HLA-DR DRB1*1101 (DR11), 9720 nM; against HLA-DR DRB3*0101 (DR52), 8040 nM; on HLA-DR DRB1*1501 (DR15), 258 nM.

In the case of EVFFQRLGIASGRAR, the IC50 was 51 nM on HLA-DR DRB4*0101 (DR53); 17500 nM against HLA-DR DRB1*1302 (DR13); more than 75000 nM against HLA-DR DRB1*0301 (DR3); 2980 nM at HLA-DR DRB1*0901 (DR9); 28 nM against HLA-DR DRB1*0101 (DR1); 7.9 nM against HLA-DR DRB5*0101 (DR51). The IC50 on HLA-DR DRB1*0802 (DR8) was 6.3 nM; against HLA-DR DRB1*0701 (DR7), 5310 nM; against HLA-DR DRB1*1101 (DR11), 31 nM; against HLA-DR DRB3*0101 (DR52), more than 15000 nM; against HLA-DR DRB1*1501 (DR15), 4560 nM.

Turning to `CC(C)C[C@H](NC(=O)[C@H](CO)NC(=O)[C@H](CC(C)C)NC(=O)[C@H](CO)NC(=O)[C@H](C)NC(=O)[C@H](C)NC(=O)[C@H](CCCNC(=N)N)NC(=O)[C@H](C)NC(=O)[C@H](CC(C)C)NC(=O)[C@H](CC(C)C)NC(=O)[C@H](CC(C)C)NC(=O)[C@@H]1CCCN1C(=O)[C@H](C)N)C(=O)NCC(=O)N[C@@H](Cc1ccccc1)C(=O)O`, the 50% inhibitory concentration (IC50) came to 59 nM on HLA-DR DRB4*0101 (DR53); 12 nM at HLA-DR DRB1*1302 (DR13); 56300 nM at HLA-DR DRB1*0301 (DR3); 124 nM against HLA-DR DRB1*0901 (DR9); 8.4 nM on HLA-DR DRB1*0101 (DR1); 76 nM against HLA-DR DRB1*0802 (DR8). Besides, the half-inhibitory concentration (IC50) on HLA-DR DRB1*0701 (DR7) was determined as 59 nM; against HLA-DR DRB1*1101 (DR11), 322 nM; against HLA-DR DRB3*0101 (DR52) it was 13400 nM; at HLA-DR DRB1*1501 (DR15), 91 nM.

For the compound GVILYSDPADYFAPG, the IC50 worked out at 64 nM at HLA-DR DRB4*0101 (DR53); 39 nM on HLA-DR DRB1*1302 (DR13); 17 nM on HLA-DR DRB1*0301 (DR3); 2470 nM against HLA-DR DRB1*0901 (DR9); 1570 nM against HLA-DR DRB1*0101 (DR1); 106000 nM against HLA-DR DRB1*0802 (DR8). In addition, the IC50 against HLA-DR DRB1*0701 (DR7) is 7850 nM; at HLA-DR DRB1*0401 (DR4), 7510 nM; against HLA-DR DRB1*1101 (DR11), more than 18900 nM; against HLA-DR DRB3*0101 (DR52), 8.8 nM; on HLA-DR DRB1*1501 (DR15), 965 nM.

As for `CC[C@H](C)[C@H](N)C(=O)N[C@@H](CCCCN)C(=O)N[C@@H](CCCCN)C(=O)N[C@@H](Cc1ccccc1)C(=O)N[C@@H](CC(C)C)C(=O)N[C@@H](Cc1ccc(O)cc1)C(=O)N[C@@H](CC(N)=O)C(=O)N[C@@H](Cc1ccccc1)C(=O)N[C@H](C(=O)N[C@@H](CCC(N)=O)C(=O)N[C@H](C(=O)N1CCC[C@H]1C(=O)N[C@@H](Cc1c[nH]cn1)C(=O)N[C@@H](CC(C)C)C(=O)N[C@@H](C)C(=O)O)[C@@H](C)CC)[C@@H](C)O`, the IC50 against HLA-DR DRB4*0101 (DR53) came out at 96 nM; against HLA-DR DRB1*1302 (DR13), 27 nM; at HLA-DR DRB1*0301 (DR3), 8080 nM; against HLA-DR DRB1*0901 (DR9), 160 nM; against HLA-DR DRB1*0101 (DR1), 449 nM; at HLA-DR DRB1*0802 (DR8), 512 nM. For the same compound, the IC50 at HLA-DR DRB1*0701 (DR7) was determined as 29 nM; at HLA-DR DRB1*0401 (DR4), 43 nM; against HLA-DR DRB1*1101 (DR11), 137 nM; against HLA-DR DRB3*0101 (DR52), 477 nM; at HLA-DR DRB1*1501 (DR15) it was 305 nM.
